From US20240228458A1, “PYRIMIDINE DERIVATIVE HAVING PROTEIN KINASE INHIBITORY ACTIVITY, AND THERAPEUTIC PHARMACEUTICAL COMPOSITION COMPRISING SAME” (THERAPEX CO., LTD., priority 2021, published 2024) come the findings set out here.

Holding throughout (format): cell-based
In assay [1] the test system is Ba/F3 cells expressing del19/T790M/C797S (EGFR-DTC). As to the kind of experiment: Growth inhibition (GI50) of Ba/F3 cells expressing del19/T790M/C797S (EGFR-DTC), Celltiter glo. To be noted: Mus musculus, BaF3, 72 h. In outline:
(§1)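 Ba/F3 cells carrying each EGFR variant were plated at 100,000 cells/ml; after 4 h, compound was added as 10-point 4-fold dilutions (top stock 2 mM, 0.5% DMSO). After 72 h at 37 °C, viability was read by CellTiter-Glo; GI50 is the molar concentration (μM) giving 50% growth inhibition.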

Assay [2] has as its system Ba/F3 cells expressing EGFR-wt. Description: Growth inhibition (GI50) of Ba/F3 cells expressing EGFR-wt, Celltiter glo. To be noted: Mus musculus, BaF3, 72 h. Summed up:
as §1
Background: In ATP-based viability assays light output follows the ATP content of the culture.

In assay [3] the test system is parental Ba/F3 cell line. As to the kind of experiment: Growth inhibition (GI50) of the parental Ba/F3 cell line (not introduced with EGFR variants), Celltiter glo. The note with it: Mus musculus, BaF3, 72 h, parental Ba/F3 cells. Summed up: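 Viable cell count by CellTiter-Glo after 72 h at 37 °C gave GI50 values (μM, 50% growth inhibition). Cells lacking EGFR variants were seeded at 100,000 cells/ml and dosed 4 h later with 4-fold serial dilutions from a 2 mM stock, 0.5% DMSO.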

For assay [4], the system named is Ba/F3 cells expressing L858R/T790M/C797S (EGFR-LTC). Description: Growth inhibition (GI50) of Ba/F3 cells expressing L858R/T790M/C797S (EGFR-LTC), Celltiter glo. To be noted: Mus musculus, BaF3, 72 h. Summed up:
as §1

Assay [5] concerns Ba/F3 cells expressing L858R/T790M (EGFR-LT). Description: Growth inhibition (GI50) of Ba/F3 cells expressing L858R/T790M (EGFR-LT), Celltiter glo. The note with it: Mus musculus, BaF3, 72 h. In outline:
as §1

Assay [6] deals with Ba/F3 cells expressing del19/T790M (EGFR-DT). As to the kind of experiment: Growth inhibition (GI50) of Ba/F3 cells expressing del19/T790M (EGFR-DT), Celltiter glo. To be noted: Mus musculus, BaF3, 72 h. In outline: as §1

For `Cc1cc(Nc2ncc(Cl)c(Nc3cc(Cl)c(F)cc3NS(C)(=O)=O)n2)c(Cl)cc1N1CCC(N2CCN(C)CC2)CC1` [Example 182, N-(4-chloro-2-((5-chloro-2-((2-chloro-5-methyl-4-(4-(4-methylpiperazin-1-yl)piperidin-1-yl)phenyl)amino)pyrimidin-4-yl)amino)-5-fluorophenyl)methanesulfonamide], the GI50 in assay [1] is 25 to 100 nM; in assay [2], 2000 to 10000 nM; in assay [3], over 10000 nM; in assay [4], 25 to 100 nM; in assay [5] it was 25 to 100 nM; in assay [6], 25 to 100 nM.

In the case of `COc1cc(N2CCC(N3CCN(C)CC3)CC2)c(Cl)cc1Nc1ncc(Br)c(Nc2cc3c(cc2NS(C)(=O)=O)CCO3)n1` [Example 183, N-(6-((5-bromo-2-((5-chloro-2-methoxy-4-(4-(4-methylpiperazin-1-yl)piperidin-1-yl)phenyl)amino)pyrimidin-4-yl)amino)-2,3-dihydrobenzofuran-5-yl)methanesulfonamide], the concentration for 50% growth inhibition (GI50) lay in the range of 1 to 25 nM in assay [1]; 1 to 25 nM in assay [2]; 25 to 100 nM in assay [3]; 1 to 25 nM in assay [4]; 1 to 25 nM in assay [5]; 1 to 25 nM in assay [6].

For the compound `CCc1cc(Nc2ncc(Br)c(Nc3cc4c(cc3NS(C)(=O)=O)CCO4)n2)c(OC)cc1N1CCC(N2CCN(C)CC2)CC1` [Example 184, N-(6-((5-bromo-2-((5-ethyl-2-methoxy-4-(4-(4-methylpiperazin-1-yl)piperidin-1-yl)phenyl)amino)pyrimidin-4-yl)amino)-2,3-dihydrobenzofuran-5-yl)methanesulfonamide], the GI50 in assay [1] lay within 100 to 500 nM; in assay [2], 25 to 100 nM; in assay [3] it was 500 to 2000 nM; in assay [4], 1 to 25 nM; in assay [5], 1 to 25 nM; in assay [6] it was 1 to 25 nM.

Turning to `COc1cc(N2CCC(N3CCCN(C)CC3)CC2)c(C)cc1Nc1ncc(Br)c(Nc2cc3c(cc2NS(C)(=O)=O)CCO3)n1` [Example 188, N-(6-((5-bromo-2-((2-methoxy-5-methyl-4-(4-(4-methyl-1,4-diazepan-1-yl)piperidin-1-yl)phenyl)amino)pyrimidin-4-yl)amino)-2,3-dihydrobenzofuran-5-yl)methanesulfonamide], the 50% growth inhibitory concentration (GI50) in assay [1] was 1 to 25 nM; in assay [2] it was 100 to 500 nM; in assay [3], 500 to 2000 nM; in assay [4], 1 to 25 nM; in assay [5] it was 25 to 100 nM; in assay [6], 25 to 100 nM.

Take `COc1cc(N2CCC(N3CCCN(C)CC3)CC2)c(Cl)cc1Nc1ncc(Br)c(Nc2cc3c(cc2NS(C)(=O)=O)CCO3)n1` [Example 189, N-(6-((5-bromo-2-((5-chloro-2-methoxy-4-(4-(4-methyl-1,4-diazepan-1-yl)piperidin-1-yl)phenyl)amino)pyrimidin-4-yl)amino)-2,3-dihydrobenzofuran-5-yl)methanesulfonamide]: the 50% growth inhibitory concentration (GI50) in assay [1] is 1 to 25 nM; in assay [2] it was 25 to 100 nM; in assay [3], 500 to 2000 nM; in assay [4], 1 to 25 nM; in assay [5], 25 to 100 nM; in assay [6] it was 1 to 25 nM.

Turning to `CCc1cc(Nc2ncc(Cl)c(Nc3ccc4nccnc4c3P(C)(C)=O)n2)c(OC)cc1N1CCC(N2CCN(C)CC2)CC1` [Example 190, (6-((5-chloro-2-((5-ethyl-2-methoxy-4-(4-(4-methylpiperazin-1-yl)piperidin-1-yl)phenyl)amino)pyrimidin-4-yl)amino)quinoxalin-5-yl)dimethylphosphine oxide], the 50% growth inhibitory concentration (GI50) in assay [1] lay within 25 to 100 nM; in assay [2], 100 to 500 nM; in assay [3], 100 to 500 nM; in assay [4], 25 to 100 nM; in assay [5], 1 to 25 nM; in assay [6] it was 1 to 25 nM.

Regarding `CCc1cc(Nc2ncc(Br)c(Nc3cc(Cl)ccc3NS(C)(=O)=O)n2)c(OC)cc1N1CCC(N2CCN(C)CC2)CC1` [Example 191, N-(2-((5-bromo-2-((5-ethyl-2-methoxy-4-(4-(4-methylpiperazin-1-yl)piperidin-1-yl)phenyl)amino)pyrimidin-4-yl)amino)-4-chlorophenyl)methanesulfonamide], the GI50 in assay [1] fell in the range of 1 to 25 nM; in assay [2], 100 to 500 nM; in assay [3], 2000 to 10000 nM; in assay [4], 1 to 25 nM; in assay [5], 1 to 25 nM; in assay [6] it was 1 to 25 nM.

For `CCc1cc(Nc2ncc(Br)c(Nc3ccc4nccnc4c3P(C)(C)=O)n2)c(OC)cc1N1CCC(N2CCN(C)CC2)CC1` [Example 192, (6-((5-bromo-2-((5-ethyl-2-methoxy-4-(4-(4-methylpiperazin-1-yl)piperidin-1-yl)phenyl)amino)pyrimidin-4-yl)amino)quinoxalin-5-yl)dimethylphosphine oxide], the GI50 in assay [1] is 1 to 25 nM; in assay [2], 25 to 100 nM; in assay [3] it was 100 to 500 nM; in assay [4], 1 to 25 nM; in assay [5], 1 to 25 nM; in assay [6], 1 to 25 nM.

For `Cc1cc(Nc2ncc(Br)c(Nc3ccc4nccnc4c3P(C)(C)=O)n2)c(Cl)cc1N1CCC(N2CCN(C)CC2)CC1` [Example 193, (6-((5-bromo-2-((2-chloro-5-methyl-4-(4-(4-methylpiperazin-1-yl)piperidin-1-yl)phenyl)amino)pyrimidin-4-yl)amino)quinoxalin-5-yl)dimethylphosphine oxide], the concentration for 50% growth inhibition (GI50) lay within 1 to 25 nM in assay [1]; 100 to 500 nM in assay [2]; 500 to 2000 nM in assay [3]; 25 to 100 nM in assay [4]; 100 to 500 nM in assay [5]; 100 to 500 nM in assay [6].

On to `COc1cc(N2CCC(N3CCN(C)CC3)CC2)c(Cl)cc1Nc1ncc(Br)c(Nc2ccc3nccnc3c2P(C)(C)=O)n1` [Example 194, (6-((5-bromo-2-((5-chloro-2-methoxy-4-(4-(4-methylpiperazin-1-yl)piperidin-1-yl)phenyl)amino)pyrimidin-4-yl)amino)quinoxalin-5-yl)dimethylphosphine oxide], for which the GI50 in assay [1] fell in the range of 25 to 100 nM; in assay [2] it was 100 to 500 nM; in assay [3] it was 100 to 500 nM; in assay [4], 25 to 100 nM; in assay [5], 100 to 500 nM; in assay [6], 25 to 100 nM.

Consider `COc1cc(N2CCC(N3CCCC(N(C)C)C3)CC2)c(C)cc1Nc1ncc(Br)c(Nc2cc3c(cc2NS(C)(=O)=O)CCO3)n1` (stereo not drawn) [Example 196, N-(6-((5-bromo-2-((4-(3-(dimethylamino)-[1,4′-bipiperidin]-1′-yl)-2-methoxy-5-methylphenyl)amino)pyrimidin-4-yl)amino)-2,3-dihydrobenzofuran-5-yl)methanesulfonamide], for which the GI50 lay within 1 to 25 nM in assay [1]; 500 to 2000 nM in assay [2]; 2000 to 10000 nM in assay [3]; 100 to 500 nM in assay [4]; 25 to 100 nM in assay [5]; 1 to 25 nM in assay [6].

`Cc1cc(Nc2ncc(Cl)c(Nc3cc4c(cc3NS(C)(=O)=O)CCO4)n2)c(Cl)cc1N1CCC(N2CCCC(N(C)C)C2)CC1` (stereo not drawn) [Example 197, N-(6-((5-chloro-2-((2-chloro-4-(3-(dimethylamino)-[1,4′-bipiperidin]-1′-yl)-5-methylphenyl)amino)pyrimidin-4-yl)amino)-2,3-dihydrobenzofuran-5-yl)methanesulfonamide]: the GI50 in assay [1] fell in the range of 25 to 100 nM; in assay [2], 100 to 500 nM; in assay [3], 2000 to 10000 nM; in assay [4] it was 100 to 500 nM; in assay [5] it was 100 to 500 nM; in assay [6], 1 to 25 nM.

With `COc1ccc(NS(C)(=O)=O)c(Nc2nc(Nc3cc(C)c(N4CCC(N5CCN(C)CC5)CC4)cc3OC)ncc2Cl)c1` [Example 199, N-(2-((5-chloro-2-((2-methoxy-5-methyl-4-(4-(4-methylpiperazin-1-yl)piperidin-1-yl)phenyl)amino)pyrimidin-4-yl)amino)-4-methoxyphenyl)methanesulfonamide], the 50% growth inhibitory concentration (GI50) in assay [1] lay in the range of 1 to 25 nM; in assay [2] it was 100 to 500 nM; in assay [3] it was 100 to 500 nM; in assay [4], 1 to 25 nM; in assay [5], 25 to 100 nM; in assay [6] it was 1 to 25 nM.

Take `COc1ccc(NS(C)(=O)=O)c(Nc2nc(Nc3cc(C)c(N4CCC(N5CCN(C)CC5)CC4)cc3Cl)ncc2Cl)c1` [Example 200, N-(2-((5-chloro-2-((2-chloro-5-methyl-4-(4-(4-methylpiperazin-1-yl)piperidin-1-yl)phenyl)amino)pyrimidin-4-yl)amino)-4-methoxyphenyl)methanesulfonamide]: the GI50 in assay [1] lay in the range of 25 to 100 nM; in assay [2], 100 to 500 nM; in assay [3], 100 to 500 nM; in assay [4], 25 to 100 nM; in assay [5], 25 to 100 nM; in assay [6] it was 1 to 25 nM.

As for `COc1ccc(NS(C)(=O)=O)c(Nc2nc(Nc3cc(Cl)c(N4CCC(N5CCN(C)CC5)CC4)cc3OC)ncc2Cl)c1` [Example 201, N-(2-((5-chloro-2-((5-chloro-2-methoxy-4-(4-(4-methylpiperazin-1-yl)piperidin-1-yl)phenyl)amino)pyrimidin-4-yl)amino)-4-methoxyphenyl)methanesulfonamide], the GI50 in assay [1] was 1 to 25 nM; in assay [2], 1 to 25 nM; in assay [3] it was 25 to 100 nM; in assay [4], 1 to 25 nM; in assay [5], 1 to 25 nM; in assay [6], 1 to 25 nM.

The term GI50 denotes the concentration giving 50% growth inhibition.
